In patent US20240335373A1, “Methods, Systems and Devices for Post-Fabrication Drug Loading” (THE UNIVERSITY OF NORTH CAROLINA AT CHAPEL HILL, priority 2020, published 2024):
≈ marks a conversion by molar mass, not a printed value.

How the values were obtained:
[1] = Drug loading of post-loaded SIL 30 diffusion blocks, solvent extraction and HPLC; format: physicochemical; conditions: for Drug Loading / Wt. % Loading: loaded 5 mg/mL in acetone 24 hr
Description: Loading. […] . Solutions of 5 mg/mL of drug in acetone were prepared and validated via HPLC. […] Blocks were then divided into an extraction set and a release set.
Extraction. Drug-loaded blocks were extracted using methods previously described in Section 2.6 using acetone as the extraction solvent. Aliquots were collected and analyzed with HPLC. Weight percent loading was determined as the total drug extracted relative to the mass of the dried blocks.
Block types 6.0 and 7.6 mm (n=8 of each type) were fabricated in SIL 30. A solution containing 8.562 mg/mL of 4′-ethynyl-2-fluoro-2′-deoxyadenosine (EFdA) in acetone was prepared and validated via HPLC. Blocks were batch immersed in post-loading solution for up to 24 hr. Blocks were divided into extraction (n=4) and release (n=4) sets. EFdA was extracted from blocks in acetone as previously described and quantified with HPLC. Release blocks were individually immersed in 60 mL of SVF and placed in an incubator at 37° C. Aliquots and analysis were completed using methods previously described. EFdA was quantified with HPLC, eluting at 5.31 min at 265 nm.
A test part described as a diffusion block with dimensions in X, Y, and Z of 10 mm, 20 mm, and 4 mm, respectively, was primarily used. The general flow of the post-loading process is outlined in FIG. 6A. The initial metrics of dimensional and mass measurements were taken for every block used prior to loading or testing. The block was then immersed in a post-loading solution containing a known concentration of the API for a specified duration. The part was removed and measured for swollen metrics. An aliquot of the post-loading solution following part removal was taken for HPLC analysis. The part was then dried in an oven to remove the post-loading solvent, after which the part was measured for dried metrics. These metrics serve as check points to precisely investigate part behavior throughout the post-loading process, specifically dimensional deformations. Once the part was post-loaded it can either be tested for total drug content via an extraction process, outlined in FIG. 6B, or tested for drug release in simulated vaginal fluid (SVF), outlined in FIG. 6C. Aliquots from both processes are taken for HPLC analysis.
. For these samples, metrics were taken and aliquots were analyzed via HPLC on a C18 column with an optimized method. Extraction aliquots and post-loading solution aliquots were diluted in acetonitrile (ACN) at 1:100 while release samples were analyzed as is. Extracted material includes both the incorporated drug (β-estradiol) as well as leachables/extractables. […] .
Blocks were further assessed by quantifying the extracted drug via HPLC. The total amount of drug extracted, weight percent loading and loading efficiency were calculated and averaged, with variation described by % RSD. Overall, a slight decrease in loading metrics was observed as a function of loading order. However, once averaged out, these values yielded minimal variability. Additionally, values shown are in-line with those obtained during the reproducibility study (Section 3.2) for methanol.
Both pre-loaded and post-loaded blocks were extracted in 20 mL of EtOH for 72 hours. Aliquots were taken and analyzed via HPLC. […] . […] Therefore, for the sake of consistency between previous results and subsequently prepared samples, loading values obtained in Round II were used for all calculations.

[2] = In vivo PK of EFdA-loaded IVRs in macaques; conditions: female pigtailed macaques, 28 days
Description: Macaque size (25 mm OD) 3D printed IVRs post-loaded with EFdA at 45 mg/IVR or 62 mg/IVR were administered to female pigtailed macaques and plasma, PBMCs, vagina and rectal fluids, and vaginal and rectal biopsies were collected over 28 days and analyzed for EFdA concentration and EFdA-TP (triphosphorilated EFdA, EFdA-TP) in PBMCs.

[3] = In vitro release from drug-loaded blocks or ring sections in simulated vaginal fluid (SVF); format: physicochemical; conditions: for Drug Release at Zero Order Mass/Day / Drug Release at Zero Order Percent/Day: linear regression from Day 2
[4] = cited from earlier work
physchem = conditions: organic solvent or mixture
[5] = SIL 30 block 6.21 ± 0.03 mm, 8.562 mg/mL in acetone
[6] = SIL 30 block 6.21 ± 0.03 mm, 8.562 mg/mL in acetone up to 24 hr
[7] = SIL 30 block 7.62 ± 0.03 mm, 8.562 mg/mL in acetone
[8] = SIL 30 block 7.62 ± 0.03 mm, 8.562 mg/mL in acetone up to 24 hr
[9] = SIL 30 block 6.29 ± 0.04 mm, 5 mg/mL in acetone
[10] = SIL 30 block 6.29 ± 0.04 mm, 5 mg/mL in acetone 24 hr
[11] = SIL 30 block 7.81 ± 0.08 mm, 5 mg/mL in acetone
[12] = SIL 30 block 7.81 ± 0.08 mm, 5 mg/mL in acetone 24 hr

Compound: C#C[C@]1(CO)O[C@@H](n2cnc3c(N)nc(F)nc32)C[C@@H]1O [EFdA, 4′-ethynyl-2-fluoro-2′-deoxyadenosine]
- Normalized Delta SSA [1, 5]: −150.63 ± 4.00
- Normalized Wt. % by S-SSA [1, 5]: 81.4 ± 2.26
- Drug [1, 6]: 32.76 ± 0.76 mg
- Loading [1, 6]: 2.41 ± 0.06 Wt. %
- Normalized Delta SSA [1, 7]: −195.95 ± 4.41
- Normalized Wt. % by S-SSA [1, 7]: 99.91 ± 3.67
- Drug [1, 8]: 36.91 ± 1.18 mg
- Loading [1, 8]: 2.15 ± 0.07 Wt. %
- EFdA levels in tissue and fluid samples ([2]; 45 mg/IVR or 62 mg/IVR): above the known efficacious levels
- EFdA-TP levels in PBMCs ([2]; 45 mg/IVR or 62 mg/IVR): above the known efficacious levels
- PK levels ([2]; 62 mg vs 45 mg EFdA IVR): dose dependent

Compound: Nc1nc(F)nc2c1ncn2[C@H]1C[C@H](O)[C@@H](CO)O1 [FdA, 2-fluoro-2′-deoxyadenosine]
- Normalized Delta SSA [1, 9]: −91.19 ± 7.35
- Normalized Wt. % by S-SSA [1, 9]: 47.53 ± 3.10
- Drug [1, 10]: 18.95 ± 1.28 mg
- Loading [1, 10]: 1.43 ± 0.10 Wt. %
- Normalized Delta SSA [1, 11]: −103.29 ± 2.04
- Normalized Wt. % by S-SSA [1, 11]: 52.82 ± 1.47
- Drug [1, 12]: 19.38 ± 0.54 mg
- Loading [1, 12]: 1.19 ± 0.03 Wt. %
- Drug Loading ([1]; block 0.65 ± 0.01 mm): 2.07 ± 0.06 mg
- Wt. % Loading ([1]; block 0.65 ± 0.01 mm): 1.71 ± 0.07 Wt. %
- Drug Loading ([1]; block 1.51 ± 0.01 mm): 4.07 ± 0.19 mg
- Wt. % Loading ([1]; block 1.51 ± 0.01 mm): 1.60 ± 0.07 Wt. %
- Drug Loading ([1]; block 2.32 ± 0.02 mm): 6.46 ± 0.17 mg
- Wt. % Loading ([1]; block 2.32 ± 0.02 mm): 1.46 ± 0.04 Wt. %
- Drug Loading ([1]; block 3.26 ± 0.03 mm): 9.68 ± 0.70 mg
- Wt. % Loading ([1]; block 3.26 ± 0.03 mm): 1.52 ± 0.11 Wt. %
- Drug Loading ([1]; block 4.28 ± 0.04 mm): 14.42 ± 1.21 mg
- Wt. % Loading ([1]; block 4.28 ± 0.04 mm): 1.62 ± 0.14 Wt. %
- Drug Loading ([1]; block 6.29 ± 0.04 mm): 18.95 ± 1.28 mg
- Wt. % Loading ([1]; block 6.29 ± 0.04 mm): 1.43 ± 0.10 Wt. %
- Drug Loading ([1]; block 7.81 ± 0.08 mm): 19.38 ± 0.54 mg
- Wt. % Loading ([1]; block 7.81 ± 0.08 mm): 1.19 ± 0.03 Wt. %
- release profile ([3]; all post-loaded SIL 30 block types, SVF): linear and sustained release following an initial burst
- Drug Release at Zero Order Mass/Day ([3]; block 2.32 ± 0.02 mm, SVF): 406.25 ± 19.80 µg/day
- Drug Release at Zero Order Percent/Day ([3]; block 2.32 ± 0.02 mm, SVF): 6.40 ± 0.20 Percent/Day
- Drug Release at Zero Order Mass/Day ([3]; block 3.26 ± 0.03 mm, SVF): 423.43 ± 17.17 µg/day
- Drug Release at Zero Order Percent/Day ([3]; block 3.26 ± 0.03 mm, SVF): 3.94 ± 0.06 Percent/Day
- Drug Release at Zero Order Mass/Day ([3]; block 4.28 ± 0.04 mm, SVF): 450.51 ± 16.45 µg/day
- Drug Release at Zero Order Percent/Day ([3]; block 4.28 ± 0.04 mm, SVF): 2.93 ± 0.03 Percent/Day
- Drug Release at Zero Order Mass/Day ([3]; block 6.29 ± 0.04 mm, SVF): 453.56 ± 20.13 µg/day
- Drug Release at Zero Order Percent/Day ([3]; block 6.29 ± 0.04 mm, SVF): 2.26 ± 0.01 Percent/Day
- Drug Release at Zero Order Mass/Day ([3]; block 7.81 ± 0.08 mm, SVF): 454.52 ± 20.34 µg/day
- Drug Release at Zero Order Percent/Day ([3]; block 7.81 ± 0.08 mm, SVF): 1.86 ± 0.04 Percent/Day
- percent burst release normalized by SSA ([3]; post-loaded SIL 30 blocks, all block distances, normalized by placebo SSA in SVF): around 40%
- percent burst release plateau ([3]; post-loaded SIL 30 blocks, larger block distances, SVF, first 24 hrs): 22%
- log p [4]: −0.57
- solubility (physchem): 9500 µg/mL (≈ 35.3 mM)

Compound: C[C@]12CC[C@@H]3c4ccc(O)cc4CC[C@H]3[C@@H]1CC[C@@H]2O [β-Estradiol, β-estradiol]
- log p [4]: 3.75
